“And” between values parts separate entries of the source, which are not always exact repeats. Identical values can stand only once.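 A five-concentration, 48-hour dose response in 96-well plates underlies each endpoint, interpolated linearly between surrounding concentrations. The concentration for 50% growth inhibition is given as GI50. TGI denotes the concentration required for complete inhibition of growth.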
Columns and labels:
Assay in all cases: NCI anticancer screen, dose series, 48 h
[1] = system: A549 NSCLC
[2] = system: HS 578T breast
[3] = system: K-562 leukemia
[4] = system: UACC-257 melanoma
[5] = system: OVCAR-4 ovarian
[6] = system: DU-145 prostate
[7] = system: SNB-75 CNS
[8] = system: MOLT-4 leukemia
[9] = system: HCT-15 colon
[10] = system: SK-MEL-28 melanoma

Structure (SMILES)	GI50 [1]	TGI [1]	GI50 [2]	TGI [2]	GI50 [3]	TGI [3]	GI50 [4]	TGI [4]	GI50 [5]	TGI [5]	GI50 [6]	TGI [6]	GI50 [7]	TGI [7]	GI50 [8]	TGI [8]	GI50 [9]	TGI [9]	GI50 [10]	TGI [10]
CC(C)[C@@H]1CC[C@@H]2[C@@H]1[C@H](OC(=O)/C=C/c1ccccc1)[C@]1(C(C)C)C[C@@H](OC(=O)CO)[C@@]2(C)O1	6.61 µM	14.4 µM	0.00325 µM	0.0136 µM	10.4 µM	24.1 µM	7.83 µM	17.6 µM	5.15 µM	9.93 µM	7.02 µM	13.4 µM	3.46 µM	8.5 µM	6.94 µM	14.9 µM	4.72 µM	10 µM	4.89 µM	9.87 µM
C[n+]1ccc(-c2c3nc(c(-c4ccc5c(ccc[n+]5C)c4)c4ccc([nH]4)c(-c4cc[n+](C)cc4)c4nc(c(-c5ccc6c(ccc[n+]6C)c5)c5ccc2[nH]5)C=C4)C=C3)cc1	38.1 µM	> 50 µM	42.4 µM	> 50 µM	31.4 µM	> 50 µM	12.9 µM	48.5 µM	27.5 µM	> 50 µM	30.7 µM	> 50 µM	5.09 µM	26.1 µM	> 50 µM	> 50 µM	> 50 µM	> 50 µM	28.5 µM	> 50 µM
Oc1cc2ccccc2cc1-c1n[nH]c(=S)n1-c1ccc(Cl)cc1	25.3 µM	> 100 µM	12.4 µM	90.2 µM	> 100 µM	> 100 µM	18.7 µM	56.7 µM	40.5 µM	> 100 µM	31.2 µM	> 100 µM	28.7 µM	> 100 µM	22.7 µM	> 100 µM	7.96 µM	> 100 µM	36.4 µM	> 100 µM
NC[C@@](O)(c1ccc(Cl)cc1)c1ccc(-c2cn[nH]c2)cc1	1.5 µM and 1.41 µM	4.08 µM and 3.21 µM	0.471 µM and 0.173 µM		1.69 µM	3.53 µM	1.7 µM	4.57 µM	1.4 µM	2.86 µM	3.27 µM and 2.49 µM	> 100 µM	0.11 µM and 0.245 µM	2.41 µM and 3.6 µM	2.14 µM and 1.98 µM	> 100 µM	0.867 µM	2.7 µM	3.97 µM	> 10 µM
O=C(Nc1ccc(Br)cc1F)c1cc(Br)ccc1O	2.11 µM	16.4 µM	0.467 µM	5.66 µM	0.453 µM	> 35.9 µM	0.829 µM	5.34 µM	0.604 µM	25.3 µM	1.47 µM	23.1 µM	0.768 µM	5.95 µM	1.45 µM	4.49 µM	0.731 µM	7.32 µM	0.4 µM	2.13 µM
CN1CCCCC1CCN1c2ccccc2Sc2ccc(S(C)=O)cc21 (centres undefined)		> 100 µM		> 100 µM		> 100 µM		> 100 µM		> 100 µM		> 100 µM		> 100 µM		> 100 µM		> 100 µM		> 100 µM
COc1ccc(CC2C3=C(CCCC3)CCN2C)cc1 (centres undefined)		> 100 µM		> 100 µM		> 100 µM		> 100 µM		> 100 µM		> 100 µM		> 100 µM		> 100 µM		> 100 µM		> 100 µM
CC([O-])C(=O)[O-].NCC1CCC1CN.[Pt+4] (centres undefined)	> 10 µM	> 10 µM	> 10 µM	> 10 µM	> 10 µM	> 10 µM	> 10 µM	> 10 µM	> 10 µM	> 10 µM	> 10 µM	> 10 µM	> 10 µM	> 10 µM	8.71 µM	> 10 µM	> 10 µM	> 10 µM	> 10 µM	> 10 µM
C/C(=N\NC(=O)c1ccncc1)c1ccc(O)cc1O	5.87 µM	> 100 µM	43.3 µM	> 100 µM	6.62 µM	> 100 µM	4.06 µM	88.5 µM	2.68 µM	> 100 µM	3.63 µM	> 100 µM	14.1 µM	88.2 µM	4.14 µM	> 100 µM	4.83 µM	> 100 µM	9.26 µM	> 100 µM
CC(C)Oc1ccc(C(=O)N[C@H](CNC(=O)CN(C)C)Cc2ccc(-c3cn4cccc([C@H](C)O)c4n3)cc2)cc1Cl	0.0507 µM	22.1 µM	1.38 µM	33.4 µM	0.0375 µM	14.7 µM	1.36 µM	11.3 µM	0.316 µM	18.7 µM	0.0385 µM	13.1 µM	0.0222 µM	13.3 µM	0.0441 µM	18 µM	0.423 µM	19.4 µM	4 µM	20.3 µM
O=C(/C=C/c1cccnc1)c1ccccc1O	37.1 µM	> 100 µM	35.9 µM	> 100 µM	20.9 µM	80 µM	25.4 µM	60.3 µM	29.5 µM	> 100 µM	16 µM	31.6 µM	16.5 µM	59.1 µM	23 µM	73.5 µM	15.6 µM	41 µM	24.1 µM	72.3 µM
CSc1nc2c(c(=O)[nH]1)C(c1ccc(Cl)cc1)C1=C(N2)/C(=C/c2ccc(Cl)cc2)CNC1 (centres undefined)	2.21 µM	5.91 µM	3.6 µM	84.1 µM	3.09 µM	15.1 µM	2.63 µM	9.4 µM	4.76 µM	19.2 µM	3.36 µM	11.6 µM	2.69 µM	11.5 µM	2.45 µM	11 µM	2.04 µM	5.54 µM	2.3 µM	6.47 µM
CC(=O)c1ccc(NCN2C(=O)c3ccccc3C2=O)cc1		> 100 µM		> 100 µM		> 100 µM		> 100 µM		> 100 µM		> 100 µM		> 100 µM		> 100 µM		> 100 µM		> 100 µM
